# Assay results taken from patent US20230062248A1, “METHODS FOR PREDICTING IXABEPILONE RESPONSIVENESS IN CANCER PATIENTS” (Allarity Therapeutics Europe ApS, priority 2020, published 2023).
# Tested on: breast cancer patients
# Experiment: Pathological complete remission (pCR) in breast cancer patients treated neoadjuvantly with ixabepilone, split by DRP prediction score (GSE41998)
# Type: in vivo, human
# Settings: pre-treatment biopsy
# Description: An mRNA-based predictor of responsiveness to ixabepilone was developed according to the methods of the invention and applied to gene expression data prepared using clinical samples from breast cancer patients, which was downloaded from Gene Expression Omnibus under accession number GSE41998 (FIG. 1). The samples were diagnostic biopsies analyzed with Affymetrix GeneChips. All the genes listed in Table 2 were measured from clinical samples on the Affymetrix GeneChip and their mean expression subtracted from the mean of all the genes in Table 1. The difference (e.g., a difference score) was then compared to a difference score produced using measured levels of the sensitivity and resistance biomarkers of Tables 1 and 2 from a reference population consisting of 279 breast cancer patients participating in a clinical trial having two treatment arms ((1) ixabepilone and (2) paclitaxel treatment), producing a percentile score on a scale from 0 to 100. As part of the clinical trial, biopsy samples from breast cancer patients later treated neoadjuvantly with ixabepilone were collected prior to treatment. Patients' responses to ixabepilone were subsequently compared to predicted ixabepilone sensitivity using the methods disclosed herein. Patients with pathological complete remission (pCR) were predicted using the disclosed methods to be more sensitive to ixabepilone than patients with no pCR (No_pCR; FIG. 1).
smiles,measurement,setting,value
"C/C(=C\c1csc(C)n1)[C@@H]1C[C@@H]2O[C@]2(C)CCC[C@H](C)[C@H](O)[C@@H](C)C(=O)C(C)(C)[C@@H](O)CC(=O)N1 [ixabepilone, (1S,3S,7S,10R,11S,12S,16R)-7,11 dihydroxy-8,8,10,12,16-pentamethyl-3-[(1E)-1-methyl-2-(2-methyl-4-thiazolyl)ethenyl] 17-oxa-4-azabicyclo[14.1.0] heptadecane-5,9-dione]","Non responders (no pCR), number of patients",DRP negative (<=50),52
same,"Responders (pCR), number of patients",DRP negative (<=50),8
same,"Non responders (no pCR), number of patients",DRP positive (>50),45
same,"Responders (pCR), number of patients",DRP positive (>50),27
